Each structure is given as a SMILES string.

One may read the IC50 as the concentration at which inhibition is half-maximal. A lower IC50 goes with greater potency in that assay.

In one assay the target is T1, Tyrosine-protein phosphatase non-receptor type 2 (Homo sapiens, UniProt P17706).
T1 sequence (P17706 whole entry): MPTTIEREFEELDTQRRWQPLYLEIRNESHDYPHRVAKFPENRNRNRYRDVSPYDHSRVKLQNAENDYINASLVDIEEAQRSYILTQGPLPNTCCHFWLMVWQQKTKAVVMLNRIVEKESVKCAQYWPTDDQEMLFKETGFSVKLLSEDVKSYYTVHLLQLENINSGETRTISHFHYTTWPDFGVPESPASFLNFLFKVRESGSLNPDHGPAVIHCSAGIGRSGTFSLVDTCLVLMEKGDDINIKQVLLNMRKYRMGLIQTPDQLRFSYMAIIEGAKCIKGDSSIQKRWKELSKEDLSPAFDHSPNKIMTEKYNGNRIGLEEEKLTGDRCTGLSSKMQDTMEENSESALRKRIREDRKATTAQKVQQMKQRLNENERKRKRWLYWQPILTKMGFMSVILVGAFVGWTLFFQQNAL
Kind of assay: Enzymatic Assay. Conditions: pH 6.5; 30 °C.
`O=C1CC(c2cccc(C(F)(F)F)c2)Oc2cc(O)cc(O)c21` (stereo not given) [PTP inhibitor, 4k]: the half-maximal inhibitory concentration (IC50) amounted to 8.82 µM. This lies in the single-digit micromolar range.

A further assay addresses T2, M-phase inducer phosphatase 2 (Homo sapiens, UniProt P30305).
T2 sequence (P30305 whole entry): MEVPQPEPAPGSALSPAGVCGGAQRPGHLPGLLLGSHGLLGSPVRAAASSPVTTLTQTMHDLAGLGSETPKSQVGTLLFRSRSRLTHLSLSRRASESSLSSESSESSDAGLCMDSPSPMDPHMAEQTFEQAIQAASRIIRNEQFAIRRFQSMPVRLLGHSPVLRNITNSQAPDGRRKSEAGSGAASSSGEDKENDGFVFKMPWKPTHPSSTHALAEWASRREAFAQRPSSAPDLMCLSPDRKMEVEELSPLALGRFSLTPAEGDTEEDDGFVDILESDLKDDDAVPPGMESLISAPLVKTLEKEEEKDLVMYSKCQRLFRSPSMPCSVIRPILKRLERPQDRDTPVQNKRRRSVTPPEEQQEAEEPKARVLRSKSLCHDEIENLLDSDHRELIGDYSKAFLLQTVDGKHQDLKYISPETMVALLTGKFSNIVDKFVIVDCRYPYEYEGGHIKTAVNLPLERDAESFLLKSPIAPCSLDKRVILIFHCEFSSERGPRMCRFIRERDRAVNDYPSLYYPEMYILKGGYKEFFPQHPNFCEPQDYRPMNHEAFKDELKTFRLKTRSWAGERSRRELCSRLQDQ
Kind of assay: Enzymatic Assay. Conditions: pH 6.5; 30 °C.
`O=C1CC(c2cccc(C(F)(F)F)c2)Oc2cc(O)cc(O)c21` (stereo not given) [PTP inhibitor, 4k] displayed an IC50 of 8.54 µM.

A further assay deals with T3, Tyrosine-protein phosphatase non-receptor type 1 (Homo sapiens, UniProt P18031).
T3 sequence (P18031 whole entry): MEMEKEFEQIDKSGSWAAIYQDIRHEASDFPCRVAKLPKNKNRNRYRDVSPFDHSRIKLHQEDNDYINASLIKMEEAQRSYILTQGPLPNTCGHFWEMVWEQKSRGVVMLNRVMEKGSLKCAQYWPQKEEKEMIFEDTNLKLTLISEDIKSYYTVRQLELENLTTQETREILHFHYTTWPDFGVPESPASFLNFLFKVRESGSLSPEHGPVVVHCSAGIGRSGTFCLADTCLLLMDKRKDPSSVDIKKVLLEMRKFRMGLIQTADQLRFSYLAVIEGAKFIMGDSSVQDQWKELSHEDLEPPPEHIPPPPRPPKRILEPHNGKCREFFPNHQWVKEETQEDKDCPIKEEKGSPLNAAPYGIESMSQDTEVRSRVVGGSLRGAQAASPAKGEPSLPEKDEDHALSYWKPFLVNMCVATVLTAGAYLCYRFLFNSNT
Description: Enzymatic Assay. The settings on record: pH 6.5; 30 °C. As to the method: Briefly, the enzymatic activity of the PTP1B catalytic domain was determinedat 30°C by monitoring the hydrolysis of pNPP. […] Assays were performed in a total volume of 100 μL containing 50 mmol/L 3-[N-morpholino]propane-sulfonic acid (MOPs), pH = 6.5, 2 mmol/L pNPP, and 30 nmol/L recombinant PTP1B, as well as the indicated concentrations of the inhibitor.
As to `O=C1CC(c2cccc(Br)c2)Oc2cc(O)cc(O)c21` (stereo not given) [PTP inhibitor, 4i], half-maximal inhibition (IC50) was put at 7.33 µM. That is a single-digit micromolar value.

Compound `O=C1CC(c2ccc(Br)cc2)Oc2cc(O)cc(O)c21` (stereo not given) [PTP inhibitor, 4j] showed a concentration for half-maximal inhibition (IC50) of 3.48 µM.

The compound `O=C1CC(c2ccccc2Br)Oc2cc(O)cc(O)c21` (stereo not given) [PTP inhibitor, 4h] showed a half-inhibitory concentration (IC50) of 4.9 µM.

For the compound `O=C1CC(c2ccccc2F)Oc2cc(O)cc(O)c21` (stereo not given) [PTP inhibitor, 4a], inhibition was half-maximal at 9.06 µM (IC50).

The compound `O=C1CC(c2cccc(Cl)c2)Oc2cc(O)cc(O)c21` (stereo not given) [PTP inhibitor, 4e] came in with a half-inhibitory concentration (IC50) of 4.18 µM.

For the compound `O=C1CC(c2ccccc2)Oc2cc(O)cc(O)c21` (stereo not given) [PTP inhibitor, 4l], the midpoint of inhibition, the IC50, lay at 36.7 µM. This IC50 lies about 8.8-fold higher than the previous one.

`O=C1CC(c2ccc(Cl)cc2Cl)Oc2cc(O)cc(O)c21` (stereo not given) [PTP inhibitor, 4g] had a concentration for half-maximal inhibition (IC50) of 2.4 µM.

In turn, `O=C1CC(c2ccccc2Cl)Oc2cc(O)cc(O)c21` (stereo not given) [PTP inhibitor, 4d] displayed a half-maximal inhibitory concentration (IC50) of 10.2 µM. Against the preceding compound, the IC50 is about 4.2-fold higher.

Consider `O=C1CC(c2cccc(C(F)(F)F)c2)Oc2cc(O)cc(O)c21` (stereo not given) [PTP inhibitor, 4k], for which half-maximal inhibition (IC50) was put at 2.37 µM. Compared with the last compound, the IC50 is about 4.3-fold lower.

`O=C1CC(c2ccc(Cl)cc2)Oc2cc(O)cc(O)c21` (stereo not given) [PTP inhibitor, 4f]: half-maximal inhibition (IC50) required 3.6 µM. Compared with the last compound, the IC50 is about 1.5-fold higher.

`Cc1ccc(C2CC(=O)c3c(O)cc(O)cc3O2)cc1` (stereo not given) [PTP inhibitor, 4m] yielded a 50% inhibitory concentration (IC50) of 14.1 µM.

On to `O=C1CC(c2cccc(F)c2)Oc2cc(O)cc(O)c21` (stereo not given) [PTP inhibitor, 4b], for which the half-maximal inhibitory concentration (IC50) was determined as 7.98 µM.

Regarding `O=C1CC(c2ccc(F)cc2)Oc2cc(O)cc(O)c21` (stereo not given) [PTP inhibitor, 4c], the half-inhibitory concentration (IC50) turned out to be 2.66 µM.

The values above are taken from BindingDB's records for doi:10.3109/14756366.2012.723206 (Yanbian University College of Pharmacy, 2013).
